Data as given in US11918550B2, “Sensitization of cancer cells to differentiation therapy with mitochondrial uncoupler niclosamide ethanolamine” (The Board of Trustees of the Leland Stanford Junior …, priority 2020, dated 2024).

Key:
Format in all cases: cell-based
SK-N-BE(2) cells [1] = assay: Western blot of RA signaling proteins; conditions: 24 hrs
Procedure: Protein extraction and immunoblot. Cells were washed with ice-cold PBS buffer (Invitrogen, 20012050) and lysed with harvest buffer (10 mM Hepes pH 7.9, 50 mM NaCl, 500 mM sucrose, 0.1 mM EDTA and 0.5% Trition X-100) supplemented with 1% Halt inhibitors (Thermo Scientific™, 78443) for 10 minutes. Cell lysate was centrifuged at 3000 rpm for 3 min at 4° C. The supernatant containing cytosolic proteins was transferred to a different tube. The pellet containing nuclear proteins was dissolved with nuclear lysis buffer (10 mM Hepes pH 7.9, 0.5M NaCl, 0.1 mM EDTA, 0.1 mM EGTA and 0.1% NP40) supplemented with 1% Halt inhibitors (Thermo Scientific™, 78443) for 5 minutes at 4° C. Then the solution was sonicated at 4° C. for 6 cycles (1 cycle=30 s sonication and 30 s cooldown with “High” energy intensity) using a Bioruptor® Plus sonication (Diagenode, UCD-300). After sonication, the solution was centrifuged at 15,000 rpm for 10 minutes. The supernatant was kept as nuclear extraction. Protein concentration was determined by BCA assay (Thermo Scientific, 23227). 5 μg nuclear proteins or 7.5 μg cytosolic proteins were boiled in loading buffer with reducing reagents (Invitrogen, NuPAGE™ LDS Sample Buffer (4X), NP0007), then separated with SDS-PAGE (Nupage™ 4-12% Bis-Tris Protein Gels, 1.0 mm, Invitrogen™, NP0322BOX). Protein was transferred onto a nitrocellulose membrane (Thermo Scientific™, 88018). After blocking in 5% non-fat milk for 30 minutes at room temperature (RT), the primary antibody was added for incubation overnight at 4° C. After washing with TBST (CST, #9997, 1:10 diluted by deionized water) for 3 times, HRP-conjugated secondary antibodies were applied. Signals were detected with an ECL kit (Thermo Scientific™, 34577) by using BioRad Universal Hood II.

NB16 cells [2] = assay: U-13C-glutamine isotope tracing (LC/MS)
Procedure: (§1) Metabolic analysis. For the metabolomics and isotope tracing analysis in vitro, cells were washed with cold PBS, lysed in 80% Ultra LC-MS acetonitrile on ice for 15 minutes, centrifuged at 20,000 g for 10 minutes at 4° C., and supernatant was subjected to mass spectrometry analysis. For the metabolomics analysis in vivo, 10-20 mg tissue were cut off on ice, rinsed if necessary to remove blood, and place in a 2 ml round-bottom cryovial. The tissues were homogenized by 3 times 10 s on/off bursts homogenization in 1 ml 80% methanol on dry ice. Transfer the homogenate to an Eppendorf tube and keep on liquid nitrogen while processing the remaining samples. Incubated all the samples in −80° C. for 30 minutes. After incubation, vortexed the samples for 5 seconds. Then centrifuged the samples at 20,000 g for 10 minutes at 4° C., and supernatant was subjected to mass spectrometry analysis. Resuspend the remaining cellular pellet in 100 ul protein lysis buffer and determine the protein concentration. Then calculate the total protein content per sample.
(§2) Liquid chromatography was performed using an Agilent 1290 Infinity LC system (Agilent, Santa Clara, US) coupled to a Q-TOF 6545 mass spectrometer (Agilent, Santa Clara, US). A hydrophilic interaction chromatography method (HILIC) with a BEH amide column (100×2.1 mm i.d., 1.7 μm; Waters) was used for compound separation at 35° C. with a flow rate of 0.3 ml/minutes. The mobile phase A consisted of 25 mM ammonium acetate and 25 mM ammonium hydroxide in water and mobile phase B was acetonitrile. The gradient elution was 0-1 minute, 85% B; 1-12 minutes, 85% B→65% B; 12-12.2 minutes, 65% B→40% B; 12.2-15 minutes, 40% B. After the gradient, the column was re-equilibrated at 85% B for 5 minutes. The overall runtime was 20 minutes, and the injection volume was 5 μL. Agilent Q-TOF was operated in negative mode and the relevant parameters were as listed: ion spray voltage, 3500 V; nozzle voltage, 1000 V; fragmentor voltage, 125 V; drying gas flow, 11 L/minutes; capillary temperature, 325° C., drying gas temperature, 350° C.; and nebulizer pressure, 40 psi. A full scan range was set at 50 to 1600 (m/z). The reference mass was 119.0363 and 980.0164. The acquisition rate was 2 spectra/s. Targeted analysis, isotopologues extraction and natural isotope abundance correction were performed by Agilent Profinder B.10.00 (Agilent Technologies).
Stable isotope tracing analysis. […] Then the culture medium was changed to DMEM/F-12, no glutamine (Gibco, 21331020) with 4 mM U-^13C5-glutamine (Cambridge Isotope Laboratories, CLM-1822-H) and 10% dialyzed FBS (Gibco, 26400044) under same treatment condition as above for 2 h. […] Then changed the medium to DMEM/F-12, no glutamine (Gibco, 21331020) with 4 mM 1-^13C-glutamine (Cambridge Isotope Laboratories, CLM-CLM-3612-PK) and 10% dialyzed FBS (Gibco, 26400044) for 2 h with same treatment under normoxia or hypoxia for 2 h.

HIF2α = assay: Western blot of nuclear HIF2α under normoxia or hypoxia; conditions: SK-N-BE(2), 2 or 4 μM NEN, 3.5 mM α-KG
Procedure: Protein extraction and immunoblot. […] Cell lysate was centrifuged at 3000 rpm for 3 min at 4° C. The supernatant containing cytosolic proteins was transferred to a different tube. […] Then the solution was sonicated at 4° C. for 6 cycles (1 cycle=30 s sonication and 30 s cooldown with “High” energy intensity) using a Bioruptor® Plus sonication (Diagenode, UCD-300). After sonication, the solution was centrifuged at 15,000 rpm for 10 minutes. The supernatant was kept as nuclear extraction. […] After blocking in 5% non-fat milk for 30 minutes at room temperature (RT), the primary antibody was added for incubation overnight at 4° C.

NB16 cells [3] = assay: Relative intracellular metabolite levels by LC/MS
Procedure: as §1, §2

SK-N-BE(2) cells [4] = assay: Relative intracellular metabolite levels by LC/MS
Procedure: as §1, §2

[5] = NB16, 1 μM NEN 3 h pretreatment then 2 h label
[6] = SK-N-BE(2) cells, 1 μM NEN 2 h or 5 h vs DMSO
[7] = SK-N-BE(2) cells, 1 μM NEN 5 h vs DMSO
[8] = SK-N-BE(2), 1 μM NEN under hypoxia 3 h or 6 h

## O=C(Nc1ccc([N+](=O)[O-])cc1Cl)c1cc(Cl)ccc1O [NEN, 5-chloro-N-(2-chloro-4-nitrophenyl)-2-hydroxybenzamide compound with 2-aminoethanol (1:1)]
SK-N-BE(2) cells [1]; 1 μM NEN alone
  protein level of RARγ: increased
SK-N-BE(2) cells [1]; 1 μM NEN combined with 1 μM RA
  protein level of RARγ: further upregulated
NB16 cells [2]; [5]
  m+4 aspartate: increased
  m+4 succinate: increased
  m+5 2-HG labelling: no significant reduction
  m+5 and m+3 labeling of α-KG from glutamine: increased
NB16 cells [2]; NB16, U-13C-glutamine, 1 μM NEN, normoxia
  reductive carboxylation flux (labelling fraction of m+5 citrate, m+3 fumarate, m+3 malate): significantly inhibited
HIF2α
  inhibition of the accumulation of HIF2a protein: inhibited
NB16 cells [3]; 1 μM NEN 2 h or 5 h vs DMSO
  aspartate level: accumulated
  citrate level: not affected
  fumarate level: no significant increase
  intracellular α-KG levels: increased significantly
  malate level: no significant increase
  succinate level: accumulated
NB16 cells [3]; 1 μM NEN 5 h vs DMSO
  intracellular glutamate level: significantly reduced
  intracellular glutamine level: significantly reduced
SK-N-BE(2) cells [4]; [6]
  aspartate level: accumulated
  citrate level: not affected
  fumarate level: no significant increase
  intracellular α-KG levels: increased significantly
  malate level: no significant increase
  succinate level: accumulated
SK-N-BE(2) cells [4]; [7]
  intracellular glutamate level: significantly reduced
  intracellular glutamine level: significantly reduced
SK-N-BE(2) cells [4]; [8]
  2-HG levels under hypoxia: significantly reduced
  α-KG level under hypoxia: partially restored
